Organism: Rattus norvegicus
Assay: DrugMatrix - Regimen: Daily Repeat
Type: toxicity, organism-based, Sprague-Dawley
Design: regimen Daily Repeat, gender Male, age 6-8 weeks
Details: in vivo, po, route oral GAVAGE, vehicle .5 % CMC; for BASOPHIL / EOSINOPHIL / ERYTHROCYTE COUNT / HEMATOCRIT / HEMOGLOBIN / LEUKOCYTE COUNT / LYMPHOCYTE / MEAN CORPUSCULAR HEMOGLOBIN / MEAN CORPUSCULAR HEMOGLOBIN CONCENTRATION / MEAN CORPUSCULAR VOLUME / MONOCYTE / NEUTROPHIL / PLATELET COUNT: tissue Blood; for ALANINE AMINOTRANSFERASE / ALBUMIN / ALKALINE PHOSPHATASE / ASPARTATE AMINOTRANSFERASE / BLOOD UREA NITROGEN / CHLORIDE / CHOLESTEROL / CREATINE PHOSPHOKINASE / CREATININE / GLUCOSE / PHOSPHORUS / POTASSIUM / SODIUM / TOTAL BILIRUBIN / TOTAL PROTEIN: tissue Plasma
[1] = 0 mg/kg, 72 h, dose level Control, time 3 day
[2] = 0 mg/kg, 120 h, dose level Control, time 5 day
[3] = 94 mg/kg, 72 h, dose level High, time 3 day
[4] = 94 mg/kg, 120 h, dose level High, time 5 day
[5] = […], 72 h, dose 9.4 mg/Kg, dose level Low, time 3 day
[6] = […], 120 h, dose 9.4 mg/Kg, dose level Low, time 5 day

O=C(CCCN1CC=C(n2c(=O)[nH]c3ccccc32)CC1)c1ccc(F)cc1 [DROPERIDOL]
BASOPHIL [1]: 1.52% | EOSINOPHIL [1]: 0.98% | ERYTHROCYTE COUNT [1]: 6.96 x10E6/uL | HEMATOCRIT [1]: 44.65% | HEMOGLOBIN [1]: 13.62 G/DL | LEUKOCYTE COUNT [1]: 9.83 x10E3/uL | LYMPHOCYTE [1]: 76.48% | MEAN CORPUSCULAR HEMOGLOBIN [1]: 19.57 pg | MEAN CORPUSCULAR HEMOGLOBIN CONCENTRATION [1]: 30.47 G/DL | MEAN CORPUSCULAR VOLUME [1]: 64.22 fL | MONOCYTE [1]: 2.13% | NEUTROPHIL [1]: 18.6% | PLATELET COUNT [1]: 1217.17 x10E3/uL | ALANINE AMINOTRANSFERASE [1]: 41 u/L | ALBUMIN [1]: 3.77 G/DL | ALKALINE PHOSPHATASE [1]: 411.83 u/L | ASPARTATE AMINOTRANSFERASE [1]: 62.83 u/L | BLOOD UREA NITROGEN [1]: 15.17 mg/dL | CHLORIDE [1]: 104.33 MEQ/L | CHOLESTEROL [1]: 71.17 mg/dL | CREATINE PHOSPHOKINASE [1]: 123.5 u/L | CREATININE [1]: 0.55 mg/dL | GLUCOSE [1]: 182.67 mg/dL | PHOSPHORUS [1]: 11.23 mg/dL | POTASSIUM [1]: 7.03 MEQ/L | SODIUM [1]: 148 MEQ/L | TOTAL BILIRUBIN [1]: 0.57 mg/dL | TOTAL PROTEIN [1]: 6.85 G/DL | BASOPHIL [2]: 1.35% | EOSINOPHIL [2]: 0.43% | ERYTHROCYTE COUNT [2]: 6.96 x10E6/uL | HEMATOCRIT [2]: 44.35% | HEMOGLOBIN [2]: 13.98 G/DL | LEUKOCYTE COUNT [2]: 9.45 x10E3/uL | LYMPHOCYTE [2]: 80.83% | MEAN CORPUSCULAR HEMOGLOBIN [2]: 20.1 pg | MEAN CORPUSCULAR HEMOGLOBIN CONCENTRATION [2]: 31.52 G/DL | MEAN CORPUSCULAR VOLUME [2]: 63.72 fL | MONOCYTE [2]: 2.37% | NEUTROPHIL [2]: 14.05% | PLATELET COUNT [2]: 1298 x10E3/uL | ALANINE AMINOTRANSFERASE [2]: 42.17 u/L | ALBUMIN [2]: 3.77 G/DL | ALKALINE PHOSPHATASE [2]: 419 u/L | ASPARTATE AMINOTRANSFERASE [2]: 66.67 u/L | BLOOD UREA NITROGEN [2]: 16.67 mg/dL | CHLORIDE [2]: 103.17 MEQ/L | CHOLESTEROL [2]: 66.33 mg/dL | CREATINE PHOSPHOKINASE [2]: 148.33 u/L | CREATININE [2]: 0.58 mg/dL | GLUCOSE [2]: 196.83 mg/dL | PHOSPHORUS [2]: 11.8 mg/dL | POTASSIUM [2]: 6.47 MEQ/L | SODIUM [2]: 148.33 MEQ/L | TOTAL BILIRUBIN [2]: 0.53 mg/dL | TOTAL PROTEIN [2]: 6.77 G/DL | BASOPHIL [3]: 2.03% | EOSINOPHIL [3]: 0.53% | ERYTHROCYTE COUNT [3]: 7.81 x10E6/uL | HEMATOCRIT [3]: 49.37% | HEMOGLOBIN [3]: 15.57 G/DL | LEUKOCYTE COUNT [3]: 13.33 x10E3/uL | LYMPHOCYTE [3]: 87.57% | MEAN CORPUSCULAR HEMOGLOBIN [3]: 20.1 pg | MEAN CORPUSCULAR HEMOGLOBIN CONCENTRATION [3]: 31.57 G/DL | MEAN CORPUSCULAR VOLUME [3]: 63.57 fL | MONOCYTE [3]: 2.1% | NEUTROPHIL [3]: 7% | PLATELET COUNT [3]: 1484.33 x10E3/uL | ALANINE AMINOTRANSFERASE [3]: 35.67 u/L | ALBUMIN [3]: 4.03 G/DL | ALKALINE PHOSPHATASE [3]: 335 u/L | ASPARTATE AMINOTRANSFERASE [3]: 61.67 u/L | BLOOD UREA NITROGEN [3]: 21.67 mg/dL | CHLORIDE [3]: 102.33 MEQ/L | CHOLESTEROL [3]: 79.67 mg/dL | CREATINE PHOSPHOKINASE [3]: 112.67 u/L | CREATININE [3]: 0.67 mg/dL | GLUCOSE [3]: 149 mg/dL | PHOSPHORUS [3]: 11.77 mg/dL | POTASSIUM [3]: 7.13 MEQ/L | SODIUM [3]: 148 MEQ/L | TOTAL BILIRUBIN [3]: 0.6 mg/dL | TOTAL PROTEIN [3]: 7.1 G/DL | BASOPHIL [4]: 1.4% | EOSINOPHIL [4]: 0.5% | ERYTHROCYTE COUNT [4]: 8.34 x10E6/uL | HEMATOCRIT [4]: 50.33% | HEMOGLOBIN [4]: 16.1 G/DL | LEUKOCYTE COUNT [4]: 13.23 x10E3/uL | LYMPHOCYTE [4]: 84.5% | MEAN CORPUSCULAR HEMOGLOBIN [4]: 19.37 pg | MEAN CORPUSCULAR HEMOGLOBIN CONCENTRATION [4]: 32.03 G/DL | MEAN CORPUSCULAR VOLUME [4]: 60.43 fL | MONOCYTE [4]: 2.13% | NEUTROPHIL [4]: 10.53% | PLATELET COUNT [4]: 1440.33 x10E3/uL | ALANINE AMINOTRANSFERASE [4]: 53 u/L | ALBUMIN [4]: 3.87 G/DL | ALKALINE PHOSPHATASE [4]: 248 u/L | ASPARTATE AMINOTRANSFERASE [4]: 83 u/L | BLOOD UREA NITROGEN [4]: 23.33 mg/dL | CHLORIDE [4]: 103 MEQ/L | CHOLESTEROL [4]: 68 mg/dL | CREATINE PHOSPHOKINASE [4]: 108.67 u/L | CREATININE [4]: 0.67 mg/dL | GLUCOSE [4]: 160.67 mg/dL | PHOSPHORUS [4]: 12.3 mg/dL | POTASSIUM [4]: 7.17 MEQ/L | SODIUM [4]: 149 MEQ/L | TOTAL BILIRUBIN [4]: 0.67 mg/dL | TOTAL PROTEIN [4]: 6.93 G/DL | BASOPHIL [5]: 1.77% | EOSINOPHIL [5]: 0.47% | ERYTHROCYTE COUNT [5]: 7.08 x10E6/uL | HEMATOCRIT [5]: 45.83% | HEMOGLOBIN [5]: 14.3 G/DL | LEUKOCYTE COUNT [5]: 15.23 x10E3/uL | LYMPHOCYTE [5]: 83.7% | MEAN CORPUSCULAR HEMOGLOBIN [5]: 20.13 pg | MEAN CORPUSCULAR HEMOGLOBIN CONCENTRATION [5]: 31.1 G/DL | MEAN CORPUSCULAR VOLUME [5]: 64.77 fL | MONOCYTE [5]: 1.6% | NEUTROPHIL [5]: 11.93% | PLATELET COUNT [5]: 1499.67 x10E3/uL | ALANINE AMINOTRANSFERASE [5]: 36.67 u/L | ALBUMIN [5]: 3.67 G/DL | ALKALINE PHOSPHATASE [5]: 351.67 u/L | ASPARTATE AMINOTRANSFERASE [5]: 62.33 u/L | BLOOD UREA NITROGEN [5]: 14 mg/dL | CHLORIDE [5]: 103.67 MEQ/L | CHOLESTEROL [5]: 70.33 mg/dL | CREATINE PHOSPHOKINASE [5]: 125.33 u/L | CREATININE [5]: 0.6 mg/dL | GLUCOSE [5]: 162.33 mg/dL | PHOSPHORUS [5]: 12.83 mg/dL | POTASSIUM [5]: 7.2 MEQ/L | SODIUM [5]: 147.67 MEQ/L | TOTAL BILIRUBIN [5]: 0.5 mg/dL | TOTAL PROTEIN [5]: 6.57 G/DL | BASOPHIL [6]: 2.17% | EOSINOPHIL [6]: 0.4% | ERYTHROCYTE COUNT [6]: 6.89 x10E6/uL | HEMATOCRIT [6]: 44.3% | HEMOGLOBIN [6]: 14.03 G/DL | LEUKOCYTE COUNT [6]: 11 x10E3/uL | LYMPHOCYTE [6]: 83.27% | MEAN CORPUSCULAR HEMOGLOBIN [6]: 20.4 pg | MEAN CORPUSCULAR HEMOGLOBIN CONCENTRATION [6]: 31.7 G/DL | MEAN CORPUSCULAR VOLUME [6]: 64.43 fL | MONOCYTE [6]: 2.07% | NEUTROPHIL [6]: 11.2% | PLATELET COUNT [6]: 1298.67 x10E3/uL | ALANINE AMINOTRANSFERASE [6]: 37.67 u/L | ALBUMIN [6]: 3.63 G/DL | ALKALINE PHOSPHATASE [6]: 359 u/L | ASPARTATE AMINOTRANSFERASE [6]: 62.33 u/L | BLOOD UREA NITROGEN [6]: 13.33 mg/dL | CHLORIDE [6]: 101.33 MEQ/L | CHOLESTEROL [6]: 65 mg/dL | CREATINE PHOSPHOKINASE [6]: 109 u/L | CREATININE [6]: 0.5 mg/dL | GLUCOSE [6]: 191 mg/dL | PHOSPHORUS [6]: 12.2 mg/dL | POTASSIUM [6]: 7.17 MEQ/L | SODIUM [6]: 147.33 MEQ/L | TOTAL BILIRUBIN [6]: 0.3 mg/dL | TOTAL PROTEIN [6]: 6.4 G/DL

From ChEMBL document CHEMBL3885881, “DrugMatrix”
